Assay [1] relates to pressor response to leukotriene D4. The assay is described as follows: decrease of LTD4 pressor response in pithed rats. Format: in vivo, Adult male Sprague-Dawley rats. The conditions noted are these: Rattus norvegicus, iv, 0.25 h, 15 minutes prior to leukotriene D4 challenge (10 μg/kg, i.v.); dose to decrease pressor response by 50%. The procedure:
A further measure of the final product's activity is their ability to decrease the pressor response in pithed rats that are challenged by LTD4. This activity is measured by the following standard procedure
Adult male Sprague-Dawley rats, weighting approximately 300-500 grams, are anesthetized with pentobarbital sodium (60 mg/kg, i.p.). The trachea is cannulated and the rats are ventilated with room air delivered from a rodent respirator (Harvard, model 680; tidal volume of 1 ml/100 grams body weight, 60 cycles/minute). Rats are pithed by passing a steel rod through the right orbit and down the entire length of the spinal column. The rod is left in position for the duration of the experiment. Pulsatile arterial blood pressure is measured from a cannulated carotid artery using a Stathamtransducer (P231D). Mean arterial blood pressure is calculated as diastolic pressure plus 1/3 pulse pressure. Drug solutions are administered i.v. through a catheter placed in a jugular vein. Arterial blood pressure is recorded on a multichannel oscillograph (Beckman, model R511A).
Groups of pithed rats, usually 4-6/group, are pretreated i.v. with a dose of test compound or vehicle (control experiments) 15 minutes prior to leukotriene D4 challenge (10 μg/kg, i.v.). Usually 3-4 doses of the test compound are evaluated in a given study. Blood pressure responses to leukotriene D4 in control and drug-treated pithed rats are then compared and an ED50 dose of antagonist is estimated. ED50 (95% confidence interval) is the calculated dose of antagonist (mg/kg, i.v.) required to decrease the pressor response to leukotriene D4 by 50%.
The ED50 values of selected final products of Formula I are set forth below in Table 2.

In assay [2] the target is T1, LTD4 in guinea pig ileum and trachea (Cavia porcellus, UniProt Q2NNR5).
T1 construct: from tissue; host or cells: isolated ileum and trachea of guinea pigs (male Hartley stated for the ileum test)
T1 sequence (Q2NNR5 1-340): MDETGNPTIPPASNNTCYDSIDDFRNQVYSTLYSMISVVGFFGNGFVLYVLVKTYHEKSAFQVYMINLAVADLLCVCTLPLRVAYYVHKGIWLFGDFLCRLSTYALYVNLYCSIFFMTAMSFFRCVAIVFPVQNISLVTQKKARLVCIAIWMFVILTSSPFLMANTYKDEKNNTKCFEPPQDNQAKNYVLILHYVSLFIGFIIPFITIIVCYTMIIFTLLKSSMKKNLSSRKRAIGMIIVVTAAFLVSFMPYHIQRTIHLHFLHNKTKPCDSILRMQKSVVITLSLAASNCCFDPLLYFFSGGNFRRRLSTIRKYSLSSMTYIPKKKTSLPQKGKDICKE
The assay can be described thus: cumulative concentration-response curves to LTD4 in guinea pig ileum and trachea (KB by method of Furchgott). The conditions noted are these: negative log of the dissociation KB, 30 minute incubation, LTD4 agonist. The procedure:
(§1) Male, Hartley guinea pigs weighing 200-450 grams were killed by decapitation. A section of terminal ileum was removed, the lumen cleaned, and the tissue divided into 2.5 cm segments. The ilea were mounted in 10 ml tissue baths containing Krebs-bicarbonate solution of the following composition in mmoles/liter: KCl, 4.6; CaCl2 ·2H2 O, 1.2; KH2 PO4, 1.2; MgSO4 ·7H2 O, 1.2; NaCl, 118.2; NaHCO3, 24.8; and dextrose, 10.0. The bath fluid was maintained at 37° C. and aerated with 95 percent oxygen and 5 percent CO2. In addition, the buffer contained 1×10^-6 M atropine to reduce ileal spontaneous activity. Isometric measurements were made with a Grass FT03C force-displacement transducer and recorded on a Grass polygraph as change in grams of force. A passive force of 0.5 g. was applied to the tissues. After an appropriate equilibration period, single submaximal control responses to pure LTD4 were obtained. Following a five minute exposure of the ileum to an experimental drug, the control concentration of LTD4 was added to the tissue bath. The response of the ileum to LTD4 in the presence of the drug was compared to the response in the absence of the drug. Various degrees of LTD4 antagonism were obtained using 2-4 different concentrations of an experimental compound on a single ileum.
For some of the drugs in this series a more detailed analysis of LTD4 antagonism was made. In these experiments, cumulative concentration-response curves were obtained to LTD4 in guinea pig ileum and trachea. This was followed by a 30 minute incubation with various concentrations of the experimental drug. The concentration response curve to LTD4 was then repeated in the presence of an antagonist. Only one concentration of antagonist was used on a single tissue. KB values were calculated by the method of Furchgott [Ann. N.Y. Acad. Sci., 139, 553 (1967)] using the following equation. [formula]
Dose effect ratio refers to the concentration of agonist required to elicit 50 percent of the maximal response (ED50) in the presence of the antagonist divided by the ED50 in the absence of the antagonist. Calculations were performed with the aid of a computer and a digital plotter. The negative log of the dissociation KB ("pKB ") is given for some of the compounds in the table below.
(§2) Percent inhibition of LTD4 evoked ileal contractions

Assay [3] has as its system LTD4 evoked ileal contractions. The assay is described as follows: LTD4 antagonism: inhibition of LTD4 evoked contractions of isolated guinea pig ileum. The conditions noted are these: 5 min exposure to drug, 50% inhibition of LTD4 responses, 37° C. More on the design: species or system Male, Hartley guinea pigs. How it is done:
as §1, §2

By ED50 is commonly meant the dose at which the effect has come halfway, by size or by number of responders. High values mean weaker potency, low ones greater potency. One may read the pKB as the negative decadic logarithm of the KB, by convention in mol/L. High values mean a low KB, low ones a high KB.

In assay [1], `CCCc1c(OCCCCc2nnn(Cc3ccc(C(=O)O)cc3)n2)ccc(C(C)=O)c1O` [Example 31, 5-[4-(4-Acetyl-3-hydroxy-2-propylphenoxy)butyl]-2H-tetrazole-2-(α-methylene-p-benzoic acid)] showed an ED50 of 6.5 mg/kg. Also, the pKB in assay [2] turned out to be 7.190. The “-log IC50” value in assay [3] was found to be 7.75. Turning to `CCCc1c(OCCCCc2nnn(CCCCC(=O)O)n2)ccc(C(C)=O)c1O` [Example 48, 5-[4-(4-Acetyl-3-hydroxy-2-propylphenoxy)butyl]-2H-tetrazol-2-(5-pentanoic acid)], in assay [1], the ED50 came to 9.9 mg/kg. Further, the “-log IC50” value in assay [3] was determined as 7.15.

On to `CCCc1c(OCCCCCCc2nnnn2CCCC(=O)O)ccc(C(C)=O)c1O` [Example 50], for which, in assay [1], the ED50 was found to be 17.3 mg/kg. In addition, the “-log IC50” value in assay [3] was determined as 6.54. The matching figures for `CCCc1c(OCCCCCCc2nnn(CCCC(=O)O)n2)ccc(C(C)=O)c1O` [Example 51, 5-[6-(4-Acetyl-3-hydroxy-2-(n-propyl)phenoxy)hexyl]-2H-tetrazole-2-[4-butanoic acid]]: 18.3 mg/kg and 6.75.

With `CCCc1c(OCCCCc2nnn(Cc3ccc(Cc4nn[nH]n4)cc3)n2)ccc(C(C)=O)c1O` [Example 54], it took a dose of 22.4 mg/kg to reach the 50% effect level in assay [1] (ED50). The compound also showed a negative-log KB (pKB) in assay [2] of 7.10. The matching figures for `CCCc1c(OCCCCc2nnn(Cc3ccc(C(=O)O)c(O)c3)n2)ccc(C(C)=O)c1O` [Example 55, 5-[4-(4-Acetyl-3-hydroxyl-2-(n-propyl)phenoxy)-butyl]-2H-tetrahydrazole-2-[4-(methylene)salicylic acid]]: 22 mg/kg and 6.89.

`CCCc1c(OCCCCc2nnnn2Cc2ccc(C(=O)O)cc2O)ccc(C(C)=O)c1O` [Example 56, 5-[4-(4-Acetyl-3-hydroxy-2-(n-propyl)phenoxy)butyl]-1H-tetrazole-1-[(4-methylene)-3-hydroxybenzoic acid]]: the pKB in assay [2] came out at 6.40. Turning to `CCCc1c(OCCCCc2nnn(Cc3ccc(C(=O)O)cc3O)n2)ccc(C(C)=O)c1O` [Example 57, 5-[4-(4-Acetyl-3-hydroxy-2-(n-propyl)phenoxy)butyl]-2H-tetrazole-2-[4-(methylene)3-hydroxybenzoic acid]], the 50% effect level in assay [1] (ED50) was put at a dose of 19.8 mg/kg. In assay [2], this compound registered a pKB of 7.06. Regarding `CCCc1c(Oc2ccc(-c3nnn(Cc4ccc(C(=O)O)cc4)n3)cc2)ccc(C(C)=O)c1O` [Example 58, 5-[Para-(4-Acetyl-3-hydroxy-2-(n-propyl)phenoxy)phenyl]-2H-tetrazole-2-[para(methylene)benzoic acid]], the pKB in assay [2] is recorded as 7.00. As for `CCCc1c(OCCCCCCc2nnnn2CC(=O)O)ccc(C(C)=O)c1O` [F], in assay [1], the ED50 was 27.1 mg/kg. Also, the “-log IC50” value in assay [3] came out at 6.59. Taken in the same sequence, the figures for `CCCc1c(OCCCCCc2nnn(CC(=O)O)n2)ccc(C(C)=O)c1O` [G] were more than 30 mg/kg and 6.3.

Values taken from patent publication US4820723A, “Disubstituted tetrazole leukotriene antagonists and methods for their use thereas” (Eli Lilly and Company, priority 1987, dated 1989).
